Test results published in patent US8778966B2, “Quinolinone derivatives as PARP and tank inhibitors” (Janssen Pharmaceutica, NV, priority 2007, dated 2014).

target: T1, TANK-2 enzyme (Homo sapiens, UniProt Q9H2K2); assay: In vitro Scintillation Proximity Assay (SPA) for TANK-2 inhibitory activity; format: biochemical; settings: read-out: in vitro SPA assay TANK-2 pIC50 (converted)
T1 construct: made in house
T1 sequence (Q9H2K2 1-1166): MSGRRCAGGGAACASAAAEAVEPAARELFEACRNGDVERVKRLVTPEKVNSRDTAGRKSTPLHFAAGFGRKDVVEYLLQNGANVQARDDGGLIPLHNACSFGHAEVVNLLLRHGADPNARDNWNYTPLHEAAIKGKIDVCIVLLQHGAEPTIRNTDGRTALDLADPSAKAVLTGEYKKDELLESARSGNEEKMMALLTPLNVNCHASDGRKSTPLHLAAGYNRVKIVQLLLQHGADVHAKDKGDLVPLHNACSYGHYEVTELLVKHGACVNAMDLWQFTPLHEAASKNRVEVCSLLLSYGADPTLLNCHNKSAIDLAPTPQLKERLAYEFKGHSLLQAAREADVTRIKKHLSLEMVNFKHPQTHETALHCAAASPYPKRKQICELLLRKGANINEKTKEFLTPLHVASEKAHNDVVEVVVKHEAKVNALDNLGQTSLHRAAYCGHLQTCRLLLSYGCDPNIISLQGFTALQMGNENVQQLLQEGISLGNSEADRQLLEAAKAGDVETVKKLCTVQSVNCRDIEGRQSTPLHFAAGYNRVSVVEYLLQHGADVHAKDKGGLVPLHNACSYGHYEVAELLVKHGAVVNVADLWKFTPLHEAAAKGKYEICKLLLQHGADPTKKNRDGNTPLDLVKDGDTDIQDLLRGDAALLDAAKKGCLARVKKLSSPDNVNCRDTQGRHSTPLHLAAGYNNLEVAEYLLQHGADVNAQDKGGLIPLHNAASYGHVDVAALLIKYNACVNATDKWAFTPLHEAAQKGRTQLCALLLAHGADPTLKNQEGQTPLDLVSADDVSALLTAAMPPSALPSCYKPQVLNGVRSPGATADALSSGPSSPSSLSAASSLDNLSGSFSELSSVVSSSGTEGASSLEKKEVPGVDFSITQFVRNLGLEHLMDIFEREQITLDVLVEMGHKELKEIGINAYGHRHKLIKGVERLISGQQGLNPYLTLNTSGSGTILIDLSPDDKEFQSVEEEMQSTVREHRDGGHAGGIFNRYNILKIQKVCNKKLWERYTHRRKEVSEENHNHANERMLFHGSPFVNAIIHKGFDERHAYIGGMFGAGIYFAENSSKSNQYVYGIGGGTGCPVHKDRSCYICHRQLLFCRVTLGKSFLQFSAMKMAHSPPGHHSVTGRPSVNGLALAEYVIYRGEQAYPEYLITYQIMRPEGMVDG
Outline: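 TANK-2 (8 μg/ml final) auto-poly(ADP-ribosyl)ation with [3H]-NAD+/NAD donor was run in Ni flash plates in Tris/HCl pH 7.4 buffer with DTT and MgCl2, 120 min at room temperature, then stopped with excess NAD and scintillation-counted. Blank-corrected cpm was expressed as % of enzyme control, and IC50 was linearly interpolated and reported as pIC50.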

SMILES	IC50 [nM]
CCc1cc2ccc(C(C)(C#N)Cc3ccccc3OC(F)(F)F)cc2[nH]c1=O (stereo not drawn) [Compound 102]	200
CCc1cc2ccc(C(C)(C#N)Cc3ccccc3C(F)(F)F)cc2[nH]c1=O (stereo not drawn) [Compound 103]	79.4
Cc1cc2ccc(C(C)(C#N)Cc3cc4ccccc4[nH]3)cc2[nH]c1=O (stereo not drawn) [Compound 234]	794
CCc1cc2ccc(C(C)(C#N)CCOc3ccccc3C#N)cc2[nH]c1=O (stereo not drawn) [Compound 276]	79.4
CCc1cc2ccc(C(C)(C#N)CCOc3cc(Cl)c(Cl)cc3Cl)cc2[nH]c1=O (stereo not drawn) [Compound 277]	2000
CCc1cc2ccc(C(C)(C#N)CCOc3ccccc3F)cc2[nH]c1=O (stereo not drawn) [Compound 278]	316
CCc1cc2ccc(C(C)(C#N)CCOc3ccc4c(c3)OCO4)cc2[nH]c1=O (stereo not drawn) [Compound 279]	398
CCc1cc2ccc(C(C)(C#N)Cc3cc(OC)cc(OC)c3)cc2[nH]c1=O (stereo not drawn) [Compound 332]	501

More lines, now with the values ahead:

IC50 [nM]	SMILES
31.6	CCc1cc2ccc(C(C)(C#N)Cc3ccncc3)cc2[nH]c1=O (stereo not drawn) [Compound 98]
79.4	CCc1cc2ccc(C(C)(C#N)Cc3cc(Cl)ccc3Cl)cc2[nH]c1=O (stereo not drawn) [Compound 99]
39.8	CCc1cc2ccc(C(C)(C#N)Cc3ccccc3C#N)cc2[nH]c1=O (stereo not drawn) [Compound 101]
251	CCc1cc2ccc(C(C)(C#N)Cc3ccc(F)c(C#N)c3)cc2[nH]c1=O (stereo not drawn) [Compound 267]
